Experimental findings from patent US20230340498A1, “COMPOSITIONS AND METHODS FOR INDUCIBLE ALTERNATIVE SPLICING REGULATION OF GENE EXPRESSION” (The Children's Hospital of Philadelphia, priority 2020, published 2023) are described below.

This assay concerns SMN2-on minigene. In words: SMN2-on cassette Firefly luciferase reporter assay in transfected HEK293 cells. The settings on record: HEK293 cells, varying doses. It is filed as cell-based, Human. How it is done:
Cell culture, transfection, and LMI070/RG7800 treatment. Human embryonic kidney (HEK293) cells (obtained from CHOP Research Vector Core stock) were maintained in DMEM media containing 10% Fetal Bovine Serum (FBS), 1% L-Glutamine and 1% penicillin/streptomycin at 37° C. with 5% CO2. Cells were cultured in 24 well plates and transfected at 80-90% confluence using Lipofectamine 2000 transfection reagent, according to the manufacturer’s protocol. For all experiments, 4 hours after plasmid transfection, cells were treated with LMI070 (MedChemExpress, HY-19620, suspended in DMSO) or RG7800 (MedChemExpress, HY-101792A, suspended in H2O) at the indicated concentrations. Cells were tested for mycoplasma by Research Vector Core. None of the cells used in the study were listed in ICLAC database of commonly misidentified cell lines.
In vitro luciferase assays. HEK293 cells were cultured in DMEM (10% FBS (v/v), 1% Pen/ Strep (v/v), and 1% L-glutamine (v/v) in a 24-well plate. At 70%-80% confluence, cells were co-transfected with the Xon.Firefly luciferase cassettes (0.3 µg/well) and a SV40p-Renilla luciferase cassette as transfection control (0.02 µg/well). Four hours after transfections cells were treated either with LMI070 or RG7800 at indicated concentrations. At 24 h after transfection, cells were rinsed with ice-cold PBS and Renilla and Firefly luciferase activities were assessed using the Dual-Luciferase Reporter Assay System (Promega) according to the manufacturer’s instructions. Luminescent readouts were obtained with a Monolight 3010 luminometer (Pharmigen). Relative light units (RLUs) were calculated as the quotient of […] RLUs and results expressed relative to mock treated control cells.
For this, SMN2-on cassettes were generated to provide drug-induced reporter gene expression. HEK293 cells were transfected with the SMN2-on expression cassettes and luciferase activity evaluated in response to varying doses of LMI070 or RG7800. […]
For orientation: In a reporter assay the amount or activity of a reporter protein is the signal.

`CCc1nc(C)cn2nc(-c3cc(=O)n4cc(C5CCN(C)CC5)cc(C)c4n3)cc12` [RG7800]: the “luciferase activity from the SMN2-on minigene” value was “induced luciferase activity”.
